# Assay results from patent US20180020708A1, “GLUCOSYRINGIC ACID ANALOGS AS SWEETNESS PROFILE MODIFIERS” (PepsiCo, Inc., priority 2016, published 2018).
# Legend:
# human tasting = experiment: Human tasting of GSA with high potency sweeteners such as rebaudioside A; type: in vivo; details: pure form
# tasters = experiment: Human tasting of sweet/flavor modifying ingredient in HFCS solution versus HFCS control; type: in vivo
# Method: For testing the material as a sweet/flavor modifying ingredient, two samples were prepared: a 4° Brix high-fructose corn syrup (HFCS) control solution and a 4° Brix HFCS solution with a known concentration of test ingredient.
# 4° Brix HFCS control solution was prepared by adding 50.89 grams of 78.60° Brix HFCS to 1000 g phosphoric acid base which was prepared by adding phosphoric acid dropwise into 1 L of Aquafina Water until pH 3.1 was obtained. pH was measured using a METTLER TOLEDO pH meter.
# If any cloudiness persisted, the sample solution was passed through a paper filter. For some low soluble compounds, Branson 2800 Ultra Sonic Bath was used to dissolve the material. Solubility was confirmed by shining a laser pointer through the solution. If no diffraction was observed then it was assumed that the material was soluble.
# For each test, 12-16 tasters were presented with these two (2) numbered samples and asked to note the sweet quality differences between the two samples. Tasters were also asked to comment on sweetness onset, sweetness linger, overall sugarlike sweetness and other qualities such as bitter taste, metallic note, astringency, cooling sensation, any offnotes and any associated flavors. Tasters were also asked to assess sample odor differences and provide any descriptions.
# Tasters were asked to not to eat at least 1 hour before tasting and rinse with Aquafina water at least 5 times between tasting all samples.
# Compound 5 was added at 35 ppm to 4 Brix HFCS in phosphoric acid (as described above). This solution was compared with 4 Brix HFCS in phosphoric acid.
# [1] = 35 ppm in 4 Brix HFCS in phosphoric acid (pH 3.1) vs 4 Brix HFCS control
structure (smiles),measurement,setting,value
"COc1cc(C(=O)O)cc(OC)c1O[C@@H]1O[C@H](CO)[C@@H](O)[C@H](O)[C@H]1O [Compound 5, Syringic acid 4-O-β-D-glucoside]","bitter, metallic and licorice off-notes of high potency sweeteners",human tasting; e.g. 300 ppm solution of Rebaudioside A in phosphate buffer,"decreasing bitter, metallic and licorice off-notes"
same,sweetness time-of-onset for high potency sweeteners,human tasting; high potency sweeteners such as rebaudioside A,decreasing the sweetness time-of-onset
same,overall sugarlike sweetness reported by tasters,tasters; [1],more sugar-like
same,sweetness onset reported by tasters,tasters; [1],earlier onset
same,sweet quality difference reported by tasters,"tasters; 35 ppm in 4 Brix HFCS in phosphoric acid (pH 3.1) vs 4 Brix HFCS control, majority of 12-16 tasters noted a difference",rounder sweetness
same,overall sweetness of nutritive sweetener sweetened beverages,"tasters; pure form, human tasting, nutritive sweetener e.g. high-fructose corn syrup (HFCS)",effective in increasing the overall sweetness
same,sweet quality of sweetened beverages,"tasters; pure form, human tasting, sweetened beverages",improving the sweet quality
